Test results reported in ChEMBL document CHEMBL1130847, “Synthesis and pharmacology of N-alkylated derivatives of the excitotoxin ibotenic acid” (Bioorg Med Chem Lett, 1998).

Assays:
Rattus norvegicus = species on record: Rattus norvegicus; test: Evaluated for effective concentration in, in vitro electrophysiological model in the rat cortical slice model.; assay type: functional
[1] = target: Metabotropic glutamate receptor 1 (Rattus norvegicus, UniProt P23385); test: Compound was evaluated for agonistic activity against mGluR1 alpha metabotropic receptor subtype in rat cortical slice model; assay type: functional
Sequence of Metabotropic glutamate receptor 1 (P23385 whole entry): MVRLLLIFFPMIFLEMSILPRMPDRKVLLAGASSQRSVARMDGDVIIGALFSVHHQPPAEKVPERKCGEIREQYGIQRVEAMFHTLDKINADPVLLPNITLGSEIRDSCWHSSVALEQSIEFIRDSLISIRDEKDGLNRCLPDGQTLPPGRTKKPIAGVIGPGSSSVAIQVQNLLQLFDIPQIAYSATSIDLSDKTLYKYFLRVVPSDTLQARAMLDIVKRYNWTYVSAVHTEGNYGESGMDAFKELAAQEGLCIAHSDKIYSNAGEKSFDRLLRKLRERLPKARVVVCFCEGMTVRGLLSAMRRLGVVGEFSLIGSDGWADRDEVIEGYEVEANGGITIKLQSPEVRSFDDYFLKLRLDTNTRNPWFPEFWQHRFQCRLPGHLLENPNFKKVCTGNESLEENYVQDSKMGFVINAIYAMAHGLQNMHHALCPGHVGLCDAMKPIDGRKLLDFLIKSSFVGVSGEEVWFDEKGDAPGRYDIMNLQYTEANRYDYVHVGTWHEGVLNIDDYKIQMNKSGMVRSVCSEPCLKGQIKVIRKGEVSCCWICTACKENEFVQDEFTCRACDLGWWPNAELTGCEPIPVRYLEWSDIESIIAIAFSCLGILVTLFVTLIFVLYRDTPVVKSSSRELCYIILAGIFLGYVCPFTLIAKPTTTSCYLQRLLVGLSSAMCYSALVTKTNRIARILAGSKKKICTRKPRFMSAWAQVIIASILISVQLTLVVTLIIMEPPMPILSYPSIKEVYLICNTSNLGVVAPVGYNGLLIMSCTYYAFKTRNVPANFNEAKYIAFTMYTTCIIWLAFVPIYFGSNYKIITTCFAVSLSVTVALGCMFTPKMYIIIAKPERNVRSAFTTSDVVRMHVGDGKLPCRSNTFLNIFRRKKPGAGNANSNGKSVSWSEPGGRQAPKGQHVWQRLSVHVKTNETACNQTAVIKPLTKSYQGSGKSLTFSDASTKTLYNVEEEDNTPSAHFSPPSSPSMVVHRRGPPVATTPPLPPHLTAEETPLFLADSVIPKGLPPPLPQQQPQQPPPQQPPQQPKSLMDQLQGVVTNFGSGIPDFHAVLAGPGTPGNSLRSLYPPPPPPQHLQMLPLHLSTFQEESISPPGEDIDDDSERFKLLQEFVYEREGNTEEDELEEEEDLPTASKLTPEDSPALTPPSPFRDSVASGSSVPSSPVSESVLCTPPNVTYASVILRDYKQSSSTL

Structure (SMILES) | EC50 (Rattus norvegicus) | EC50 [1]
Cc1onc(O)c1C(N)C(=O)O (stereo not given) | 12 µM | > 1000 µM
NC(C(=O)O)c1cc(O)no1 (stereo not given) | 9.6 µM | 43 µM
CCNC(C(=O)O)c1cc(O)no1 (stereo not given) | 320 µM | > 1000 µM
O=C(O)C(NCc1ccccc1)c1cc(O)no1 (stereo not given) | > 1000 µM | > 1000 µM
CNC(C(=O)O)c1cc(O)no1 (stereo not given) | 140 µM | > 1000 µM
